Tests used:
[1] = test system: B. subtilis 168; assay: fitness (endpoint OD595 vs no drug) (fraction); higher = more growth
Method in brief: (§1)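 Each well of a 384-well plate received 30 µl of culture at OD595 0.01, or 55 µl for S. pneumoniae. TSB, LB Lennox or CY served as media at 37 °C. OD595 was taken every 30 min for 14 h and corrected by subtracting the first reading. Fitness is the optical density at stationary-phase entry divided by the robust mean of no-drug controls, capped at 1.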

[2] = test system: S. aureus Newman; assay: as above
Method in brief: as §1

[3] = test system: S. pneumoniae D39V; assay: as above
Method in brief: as §1

[4] = test system: B. subtilis 168; assay: Bliss interaction score (quartile over a dose matrix) (fitness difference); higher = more antagonism (negative = synergy)
Method in brief: (§2)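 The Bliss score is observed fitness minus expected fitness, where the expected value is the product of single-drug fitness values inferred from combination data. Fitness is OD595 at entry into stationary phase normalised to the plate's robust no-drug mean and capped at 1. Scores are reported as quartiles spanning technical, biological and donor/recipient replicates.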

[5] = test system: S. aureus DSM 20231; assay: as above
Method in brief: as §2

[6] = test system: S. aureus Newman; assay: as above
Method in brief: as §2

[7] = test system: S. pneumoniae D39V; assay: as above
Method in brief: as §2
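For Bliss interaction score (quartile over a dose matrix) in this document: first quartile when negative (synergy) and third quartile when positive (antagonism).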

CC1=C(C(=O)O)N2C(=O)[C@@H](NC(=O)[C@H](N)c3ccccc3)[C@H]2SC1 [Cephalexin] + CN(C)c1cc(NC(=O)CNC(C)(C)C)c(O)c2c1C[C@H]1C[C@H]3[C@H](N(C)C)C(O)=C(C(N)=O)C(=O)[C@@]3(O)C(O)=C1C2=O [Tigecycline]
fitness
Settings	first compound 0.125 µg/mL	first compound 0.25 µg/mL	first compound 0.5 µg/mL	first compound 1 µg/mL	first compound 2 µg/mL	first compound 4 µg/mL
[1], partner 0.039 µg/mL	0.958	0.946	0.942	–	–	–
[1], partner 0.078 µg/mL	0.903	0.902	0.942	–	–	–
[1], partner 0.156 µg/mL	0.951	0.892	0.943	–	–	–
[2], partner 0.039 µg/mL	–	0.974	0.992	≥ 1	–	–
[2], partner 0.078 µg/mL	–	0.998	≥ 1	≥ 1	–	–
[2], partner 0.156 µg/mL	–	0.97	0.994	≥ 1	–	–
[3], partner 0.65 µg/mL	–	–	–	0.514	0.0102	0.0229
[3], partner 1.3 µg/mL	–	–	–	0.616	0.0542	0.0691
[3], partner 2.6 µg/mL	–	–	–	0.616	0.0292	0.0457

fitness, one replicate
Settings	first compound 0.125 µg/mL	first compound 0.25 µg/mL	first compound 0.5 µg/mL	first compound 1 µg/mL
[1], partner 0.125 µg/mL	–	0.94	≥ 1	0.995
[1], partner 0.25 µg/mL	–	0.952	0.976	0.975
[1], partner 0.5 µg/mL	–	0.958	≥ 1	0.916
[3], partner 0.65 µg/mL	0.933	0.959	≥ 1	–
[3], partner 1.3 µg/mL	0.964	0.974	≥ 1	–
[3], partner 2.6 µg/mL	0.888	0.915	0.978	–

Settings	Bliss interaction score
[4]	-0.0606
[5]	0.0805
[6]	0.0193
[7]	-0.0787

CC1=C(C(=O)O)N2C(=O)[C@@H](NC(=O)[C@H](N)c3ccccc3)[C@H]2SC1 [Cephalexin] + CN(N=O)C(=O)N[C@@H](C=O)[C@@H](O)[C@H](O)[C@H](O)CO [Streptozotocin]
fitness, one replicate
Settings	first compound 0.125 µg/mL	first compound 0.25 µg/mL	first compound 0.5 µg/mL	first compound 1 µg/mL	first compound 2 µg/mL	first compound 4 µg/mL
[1], partner 0.15 µg/mL	0.918	0.932	≥ 1	–	–	–
[1], partner 0.3 µg/mL	≥ 1	≥ 1	≥ 1	–	–	–
[1], partner 0.6 µg/mL	0.952	0.956	0.967	–	–	–
[3], partner 1.2 µg/mL	0.878	0.928	0.953	0.218	0.0084	0.0421
[3], partner 2.4 µg/mL	0.922	0.965	0.968	0.313	0.0518	0.0145
[3], partner 4.8 µg/mL	0.909	0.901	0.922	0.0033	0	0

fitness, [2]
Settings	first compound 0.25 µg/mL	first compound 0.5 µg/mL	first compound 1 µg/mL
partner 0.15 µg/mL	0.874	0.863	0.876
partner 0.3 µg/mL	0.728	0.735	0.786
partner 0.6 µg/mL	0.6	0.591	0.696

Settings	Bliss interaction score
[4]	0.094
[5]	-0.0755
[6]	0.0503
[7]	-0.0789

CC1=C(C(=O)O)N2C(=O)[C@@H](NC(=O)[C@H](N)c3ccccc3)[C@H]2SC1 [Cephalexin] + CN[C@@H]1[C@H](O)[C@H](NC)[C@H]2O[C@@]3(O)C(=O)C[C@@H](C)O[C@H]3O[C@@H]2[C@H]1O [Spectinomycin]
fitness
Settings	first compound 0.125 µg/mL	first compound 0.25 µg/mL	first compound 0.5 µg/mL	first compound 1 µg/mL
[1], partner 2 µg/mL	≥ 1	0.933	0.978	–
[1], partner 4 µg/mL	0.981	0.978	≥ 1	–
[1], partner 8 µg/mL	0.905	0.928	0.884	–
[2], partner 4 µg/mL	–	0.904	0.951	0.951
[2], partner 8 µg/mL	–	0.982	≥ 1	≥ 1
[2], partner 16 µg/mL	–	0.949	0.957	≥ 1

fitness, one replicate
Settings	first compound 0.125 µg/mL	first compound 0.25 µg/mL	first compound 0.5 µg/mL	first compound 1 µg/mL	first compound 2 µg/mL	first compound 4 µg/mL
[2], partner 16 µg/mL	–	–	–	–	0.969	–
[2], partner 32 µg/mL	–	–	0.681	0.713	0.651	–
[2], partner 64 µg/mL	–	–	0.127	0.071	0.1	–
[3], partner 4 µg/mL	0.874	0.91	0.993	0.474	0.0025	0
[3], partner 8 µg/mL	0.892	0.884	0.908	0.587	0.0549	0.0577
[3], partner 16 µg/mL	0.875	0.82	0.859	–	–	–

Settings	Bliss interaction score
[4]	0.0659
[5]	0.0503
[6]	0.0839
[7]	0.0578

CC1=C(C(=O)O)N2C(=O)[C@@H](NC(=O)[C@H](N)c3ccccc3)[C@H]2SC1 [Cephalexin] + CN[C@@H]1[C@H](O[C@H]2[C@H](O[C@H]3[C@H](O)[C@@H](O)[C@H](N=C(N)N)[C@@H](O)[C@@H]3N=C(N)N)O[C@@H](C)[C@]2(O)C=O)O[C@@H](CO)[C@H](O)[C@H]1O [Streptomycin]
fitness
Settings	first compound 0.125 µg/mL	first compound 0.25 µg/mL	first compound 0.5 µg/mL	first compound 1 µg/mL	first compound 2 µg/mL	first compound 4 µg/mL
[1], partner 2 µg/mL	0.94	0.923	0.932	–	–	–
[1], partner 8 µg/mL	0.031	0.0416	0.0533	–	–	–
[2], partner 1 µg/mL	–	0.944	0.967	0.987	–	–
[2], partner 2 µg/mL	–	0.976	≥ 1	≥ 1	–	–
[3], partner 4 µg/mL	–	–	–	0.454	0.0189	0.0459
[3], partner 8 µg/mL	–	–	–	0.408	0.0381	0.0337

fitness, [3], one replicate
Settings	first compound 0.125 µg/mL	first compound 0.25 µg/mL	first compound 0.5 µg/mL	first compound 1 µg/mL	first compound 2 µg/mL	first compound 4 µg/mL
partner 2 µg/mL	0.86	0.913	0.953	0.386	0.0034	0.0206
partner 4 µg/mL	0.901	0.91	0.911	–	–	–
partner 8 µg/mL	0.961	0.898	0.896	–	–	–
partner 16 µg/mL	–	–	–	0.198	0.0581	0.0194

Settings	Bliss interaction score
[4]	0.0604
[5]	-0.157
[6]	0.0561
[7]	-0.153

CC1=C(C(=O)O)N2C(=O)[C@@H](NC(=O)[C@H](N)c3ccccc3)[C@H]2SC1 [Cephalexin] + COc1c(N2C[C@@H]3CCCN[C@@H]3C2)c(F)cc2c(=O)c(C(=O)O)cn(C3CC3)c12 [Moxifloxacin]
Settings	fitness
[1], first compound 0.125 µg/mL, partner 2 µg/mL	0.0423
[1], first compound 0.125 µg/mL, partner 4 µg/mL	0.0453
[1], first compound 0.125 µg/mL, partner 8 µg/mL	0.0194
[1], first compound 0.25 µg/mL, partner 0.0312 µg/mL	0.0487
[1], first compound 0.25 µg/mL, partner 0.0625 µg/mL	0.0549
[1], first compound 0.25 µg/mL, partner 0.125 µg/mL	0.0364
[1], first compound 0.25 µg/mL, partner 2 µg/mL	0.0473
[1], first compound 0.25 µg/mL, partner 4 µg/mL	0.0392
[1], first compound 0.25 µg/mL, partner 8 µg/mL	0.027
[1], first compound 0.5 µg/mL, partner 0.0312 µg/mL	0.0585
[1], first compound 0.5 µg/mL, partner 0.0625 µg/mL	0.0464
[1], first compound 0.5 µg/mL, partner 0.125 µg/mL	0.0607
[1], first compound 0.5 µg/mL, partner 2 µg/mL	0.0441
[1], first compound 0.5 µg/mL, partner 4 µg/mL	0.0483
[1], first compound 0.5 µg/mL, partner 8 µg/mL	0.0385
[1], first compound 1 µg/mL, partner 0.0312 µg/mL	0.0562
[1], first compound 1 µg/mL, partner 0.0625 µg/mL	0.0588
[1], first compound 1 µg/mL, partner 0.125 µg/mL	0.0618
[2], first compound 0.25 µg/mL, partner 0.0075 µg/mL	0.788
[2], first compound 0.5 µg/mL, partner 0.0075 µg/mL	0.812
[2], first compound 0.5 µg/mL, partner 0.015 µg/mL	0.691
[2], first compound 1 µg/mL, partner 0.0075 µg/mL	0.807
[3], first compound 4 µg/mL, partner 0.005 µg/mL	0.0502
[3], first compound 4 µg/mL, partner 0.01 µg/mL	0.059
[3], first compound 4 µg/mL, partner 0.02 µg/mL	0.0505

fitness, [3], one replicate
Settings	first compound 0.125 µg/mL	first compound 0.25 µg/mL	first compound 0.5 µg/mL
partner 0.0037 µg/mL	0.856	0.855	0.836
partner 0.0075 µg/mL	0.948	0.843	0.819
partner 0.015 µg/mL	0.839	0.813	0.808

Settings	Bliss interaction score
[4]	0.0149
[5]	-0.0585
[6]	0.07
[7]	-0.0683

Source: the supplement of paper PMC10627819
